Source: patent publication US10092584B2 (Achillion Pharmaceuticals, Inc., priority 2015, dated 2018)
Where two headings read alike, the source gives them in different places.

Target: T1, Human Factor D (Homo sapiens, UniProt P00746)
T1 construct: purified from human serum; purchased Complement Technology, Inc; host or cells: human serum
Experiment: Human Factor D assay (Example 8)
Format: biochemical
Method: Human Factor D (purified from human serum, Complement Technology, Inc.) at 80 nM final concentration was incubated with test compound at various concentrations for 5 minutes at room temperature in 50 mM Tris, 1M NaCl, pH 7.5. A synthetic substrate Z-L-Lys-SBzl and DTNB (Ellman's reagent) are added to final concentrations of 100 μM each. […] IC50 values are calculated by nonlinear regression of complement Factor D reaction rates as a function of test compound concentration.

[1] = Table 1, Human Factor D 80 nM, substrate Z-L-Lys-SBzl, read-out: IC50

T1 sequence (P00746 26-253): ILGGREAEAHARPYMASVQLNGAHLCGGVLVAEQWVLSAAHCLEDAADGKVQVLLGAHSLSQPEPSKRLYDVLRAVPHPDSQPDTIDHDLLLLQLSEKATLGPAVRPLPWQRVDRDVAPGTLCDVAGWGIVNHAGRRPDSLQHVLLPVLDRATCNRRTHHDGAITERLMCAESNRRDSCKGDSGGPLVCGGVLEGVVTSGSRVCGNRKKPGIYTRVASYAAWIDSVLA

Row | Structure (SMILES) | IC50 [1] | IC50
1 | NC(=O)N1C[C@H](F)C[C@H]1Cn1cc(-c2ccc(F)c(Cl)c2)nn1 [Compound 30, (2S,4R)-2-((4-(3-chloro-4-fluorophenyl)-1H-1,2,3-triazol-1-yl)methyl)-4-fluoropyrrolidine-1-carboxamide] | > 10 µM | 
2 | NC(=O)n1cc(NC(=O)C2=C(C(=O)NCc3cccc(Cl)c3F)CCC2)c2ccccc21 [Compound 31, N1-(1-carbamoyl-1H-indol-3-yl)-N2-(3-chloro-2-fluorobenzyl)cyclo-pent-1-ene-1,2-dicarboxamide] | > 10 µM | 
3 | CC(=O)c1cn(CC(=O)N2C[C@H](F)C[C@H]2C(=O)N2Cc3ccccc3C2)c2ccccc12 [Compound 33, 2-(3-acetyl-1H-indol-1-yl)-1-((2S,4R)-4-fluoro-2-(isoindoline-2-carbonyl)pyrrolidin-1-yl)ethanone] | > 10 µM | 
4 | CC(=O)c1cn(CC(=O)N2C[C@H](F)C[C@H]2C(=O)N(C)Cc2cccc(Cl)c2F)c2ccccc12 [Compound 34, (2S,4R)-1-(2-(3-acetyl-1H-indol-1-yl)acetyl)-N-(3-chloro-2-fluorobenzyl)-4-fluoro-N-methylpyrrolidine-2-carboxamide] | > 10 µM | 
5 | CC(=O)c1cn(CC(=O)N2[C@H](C(=O)NCc3cccc(Cl)c3F)C[C@@H]3CCCC[C@@H]32)c2cc(O)ccc12 [Compound 35, (2S,3aS,7aS)-1-(2-(3-acetyl-6-hydroxy-1H-indol-1-yl)acetyl)-N-(3-chloro-2-fluorobenzyl)octa-hydro-1H-indole-2-carboxamide] |  | < 1 µM
6 | O=C1CCCc2c1c1ccccc1n2CC(=O)N1C[C@H](F)C[C@H]1C(=O)NCc1cccc(Cl)c1F [Compound 37, (2S,4R)-N-(3-chloro-2-fluorobenzyl)-4-fluoro-1-(2-(4-oxo-3,4-dihydro-1H-carbazol-9(2H)-yl)acetyl)pyrrolidine-2-carboxamide] | < 1 µM | 
7 | CC(C)(C)OC(=O)N[C@@H](Cc1c[nH]c2ccccc12)C(=O)N1C[C@H](F)C[C@H]1C(=O)NCc1cccc(Cl)c1F [Compound 38, tert-butyl (S)-1-((2S,4R)-2-(3-chloro-2-fluorobenzylcarbamoyl)-4-fluoropyrrolidin-1-yl)-3-(1H-indol-3-yl)-1-oxopropan-2-ylcarbamate] | > 10 µM | 
8 | CC(=O)c1nn(CC(=O)N2C[C@H](F)C[C@H]2C(=O)Nc2cccc(SC(F)(F)F)c2)c2cnccc12 [Compound 45, (2S,4R)-1-(2-(3-acetyl-1H-pyrazolo[3,4-c]pyridin-1-yl)acetyl)-4-fluoro-N-(3-(trifluoromethylthio)phenyl)pyrrolidine-2-carboxamide] | < 1 µM | 
9 | CC(=O)c1cn(CC(=O)N2C[C@H](F)C[C@H]2C(=O)Nc2cccc(SC(F)(F)F)c2)c2cc(O)ccc12 [Compound 48, (2S,4R)-1-(2-(3-acetyl-6-hydroxy-1H-indol-1-yl)acetyl)-4-fluoro-N-(3-(trifluoromethylthio)phenyl)pyrrolidine-2-carboxamide] |  | < 1 µM
10 | CC(=O)c1cn(C(C)(C)C(=O)N2C[C@H](F)C[C@H]2C(=O)NCc2cccc(Cl)c2F)c2ccccc12 [Compound 56] | > 10 µM | 
11 | CC(=O)c1cn(CC(=O)N2C[C@H](F)C[C@H]2C(=O)NCc2cc(P(=O)(O)O)cc(Cl)c2F)c2ccccc12 [Compound 63, 3-(((2S,4R)-1-(2-(3-acetyl-1H-indol-1-yl)acetyl)-4-fluoropyrrolidine-2-carboxamido)methyl)-5-chloro-4-fluorophenylphos-phonic acid] |  | < 1 µM
12 | CC(C)(C)OC(=O)N1CCc2c(n(CC(=O)N3C[C@H](F)C[C@H]3C(=O)NCc3cccc(Cl)c3F)c3ccccc23)C1 [Compound 67, tert-butyl 9-(2-((2S,4R)-2-(3-chloro-2-fluorobenzylcarbamoyl)-4-fluoropyrrolidin-1-yl)-2-oxoethyl)-3,4-dihydro-1H-pyrido[3,4-b]indole-2(9H)-carboxylate] | > 10 µM | 
13 | O=C(NCc1cccc(Cl)c1F)[C@@H]1C[C@@H](F)CN1C(=O)Cn1c2c(c3ccccc31)CCNC2 [Compound 68, (2S,4R)-N-(3-chloro-2-fluorobenzyl)-1-(2-(3,4-dihydro-1H-pyrido[3,4-b]indol-9(2H)-yl)acetyl)-4-fluoropyrrolidine-2-carboxamide] | > 10 µM | 
14 | CCOC(=O)CC(=O)N1CCc2c(n(CC(=O)N3C[C@H](F)C[C@H]3C(=O)NCc3cccc(Cl)c3F)c3ccccc23)C1 [Compound 70, ethyl 3-(9-(2-((2S,4R)-2-(3-chloro-2-fluorobenzylcarbamoyl)-4-fluoropyrrolidin-1-yl)-2-oxoethyl)-3,4-dihydro-1H-pyrido[3,4-b]indol-2(9H)-yl)-3-oxopropanoate] | > 10 µM | 
15 | O=C(O)CCC(=O)N1CCc2c(n(CC(=O)N3C[C@H](F)C[C@H]3C(=O)NCc3cccc(Cl)c3F)c3ccccc23)C1 [Compound 72, 4-(9-(2-((2S,4R)-2-(3-chloro-2-fluorobenzylcarbamoyl)-4-fluoropyrrolidin-1-yl)-2-oxoethyl)-3,4-dihydro-1H-pyrido[3,4-b]indol-2(9H)-yl)-4-oxobutanoic acid] | > 10 µM | 

Further lines, with some results ahead:

Row | IC50 [1] | Structure (SMILES) | IC50
16 | < 1 µM | N#Cc1cn(CC(=O)N2C[C@H](F)C[C@H]2C(=O)NCc2cccc(Cl)c2F)c2ccccc12 [Compound 36, (2S,4R)-N-(3-chloro-2-fluorobenzyl)-1-(2-(3-cyano-1H-indol-1-yl)acetyl)-4-fluoropyrrolidine-2-carboxamide] | 
17 | > 10 µM | N[C@@H](Cc1c[nH]c2ccccc12)C(=O)N1C[C@H](F)C[C@H]1C(=O)NCc1cccc(Cl)c1F [Compound 39, (2S,4R)-1-((S)-2-amino-3-(1H-indol-3-yl)propanoyl)-N-(3-chloro-2-fluorobenzyl)-4-fluoropyrrolidine-2-carboxamide] | 
18 | < 1 µM | O=C(NCc1cccc(Cl)c1F)[C@@H]1C[C@@H](F)CN1C(=O)Cn1cc([N+](=O)[O-])c2ccccc21 [Compound 46, (2S,4R)-N-(3-chloro-2-fluorobenzyl)-4-fluoro-1-(2-(3-nitro-1H-indol-1-yl)acetyl)pyrrolidine-2-carboxamide] | 
19 | < 1 µM | CC(=O)Nc1cn(CC(=O)N2C[C@H](F)C[C@H]2C(=O)NCc2cccc(Cl)c2F)c2ccccc12 [Compound 47, (2S,4R)-1-(2-(3-acetamido-1H-indol-1-yl)acetyl)-N-(3-chloro-2-fluorobenzyl)-4-fluoropyrrolidine-2-carboxamide] | 
20 | > 10 µM | O=C(NCc1cccc(Cl)c1F)[C@@H]1C[C@@H](F)CN1C(=O)c1csc(-c2cccnc2)n1 [Compound 50, (2S,4R)-N-(3-chloro-2-fluorobenzyl)-4-fluoro-1-(2-(pyridin-3-yl)thiazole-4-carbonyl)pyrrolidine-2-carboxamide] | 
21 | > 10 µM | CC(=O)Nc1ccc(C(=O)N2C[C@H](F)C[C@H]2C(=O)NCc2cccc(Cl)c2F)cn1 [Compound 51, (2S,4R)-1-(6-acetamidonicotinoyl)-N-(3-chloro-2-fluorobenzyl)-4-fluoropyrrolidine-2-carboxamide] | 
22 | < 1 µM | O=C(NCc1cccc(Cl)c1F)[C@@H]1C[C@@H](F)CN1C(=O)Cn1nc(I)c2ccncc21 [Compound 52, (2S,4R)-N-(3-chloro-2-fluorobenzyl)-4-fluoro-1-(2-(3-iodo-1H-pyrazolo[3,4-c]pyridin-1-yl)acetyl)pyrrolidine-2-carboxamide] | 
23 | < 1 µM | O=C(NCc1cccc(Cl)c1F)[C@@H]1C[C@@H](F)CN1C(=O)Nc1cn(C(=O)C2CC2)c2ccccc12 [Compound 54, (2S,4R)-N2-(3-chloro-2-fluorobenzyl)-N1-(1-(cyclopropanecarbonyl)-1H-indol-3-yl)-4-fluoropyrrolidine-1,2-dicarboxamide] | 
24 | > 10 µM | CC(=O)c1cn(C(C)C(=O)N2C[C@H](F)C[C@H]2C(=O)NCc2cccc(Cl)c2F)c2ccccc12 (stereo partly shown) [Compound 55] | 
25 | > 10 µM | O=C(NCc1cccc(Cl)c1F)[C@@H]1C[C@@H](F)CN1C(=O)Cn1nc(P(=O)(O)O)c2ccncc21 [Compound 57] | 
26 | > 10 µM | O=C(NCc1cccc(Cl)c1F)[C@@H]1C[C@@H](F)CN1C(=O)CN1C=NS(=O)(=O)c2ccccc21 [Compound 65, (2S,4R)-N-(3-chloro-2-fluorobenzyl)-1-(2-(1,1-dioxido-4H-benzo[e][1,2,4]thiadiazin-4-yl)acetyl)-4-fluoropyrrolidine-2-carboxamide] | 
27 | > 10 µM | CC(=O)n1cc(C(=O)C(=O)N2C[C@H](F)C[C@H]2C(=O)NCc2cccc(Cl)c2F)c2ccccc21 [Compound 71, (2S,4R)-1-(2-(1-acetyl-1H-indol-3-yl)-2-oxoacetyl)-N-(3-chloro-2-fluorobenzyl)-4-fluoropyrrolidine-2-carboxamide] | 
28 | < 1 µM | O=C(NCc1cccc(Cl)c1F)[C@@H]1C[C@@H](F)CN1C(=O)Cn1nc(-c2cn[nH]c2)c2ccncc21 [Compound 73, (2S,4R)-1-(2-(3-(1H-pyrazol-4-yl)-1H-pyrazolo[3,4-c]pyridin-1-yl)acetyl)-N-(3-chloro-2-fluorobenzyl)-4-fluoropyrrolidine-2-carboxamide] | 
29 | < 1 µM | C=C(F)c1nn(CC(=O)N2C[C@H](F)C[C@H]2C(=O)NCc2cccc(Cl)c2F)c2cnccc12 [Compound 74, (2S,4R)-N-(3-chloro-2-fluorobenzyl)-4-fluoro-1-(2-(3-(1-fluorovinyl)-1H-pyrazolo[3,4-c]pyridin-1-yl)acetyl)pyrrolidine-2-carboxamide] | 
30 | < 1 µM | O=C(NCc1cccc(Cl)c1F)[C@@H]1C[C@@H](F)CN1C(=O)Cn1nc(-c2cnc[nH]2)c2ccncc21 [Compound 75, (2S,4R)-1-(2-(3-(1H-imidazol-5-yl)-1H-pyrazolo[3,4-c]pyridin-1-yl)acetyl)-N-(3-chloro-2-fluorobenzyl)-4-fluoropyrrolidine-2-carboxamide] | 
31 | < 1 µM | NS(=O)(=O)c1cn(CC(=O)N2C[C@H](F)C[C@H]2C(=O)NCc2cccc(Cl)c2F)c2ccccc12 [Compound 76, (2S,4R)-N-(3-chloro-2-fluorobenzyl)-4-fluoro-1-(2-(3-sulfamoyl-1H-indol-1-yl)acetyl)pyrrolidine-2-carboxamide] | 
